Assay results as given in patent publication US11427553B2, “Dihydrooxadiazinones” (Bayer Aktiengesellschaft, priority 2017, dated 2022).

What was measured:
[1] = system: HeLa cells; assay: Assay 1 cell proliferation measurement (CTG, 72 h), HeLa; assay type: cell-based, human; settings: Homo sapiens, HeLa; Assay 1, 72 h, Cell Titer Glo; read-out: HeLa IC50 [nM] (Cervical cancer)
Description: (§1) Cell Proliferation Measurement
(§2) The antiproliferative activity of the compounds of the general formula (I) was examined in vitro in human cancer cells. For this purpose, the appropriate number of cells (Hela: 800; SK-MEL-3: 1000; A549: 800) were plated in 384-well plates with appropriate growth medium ((A549: DMEM/Ham's F12 (Biochrom; #FG 4815 with stabile Glutamine), FCS 10% final (Biochrom; #S 0415); Hela: DMEM/Ham's F12 (Biochrom; #FG 4815 with stabile Glutamine), FCS 10% final (Biochrom; #S 0415); SK-MEL-3: McCoy's 5A (Biochrom; #F 1015), FCS 10% final (Biochrom; #S 0415), L-Alanyl-L-Glutamine final: 2 mM, (Biochrom; #K 0302)) and incubated at 37° C. overnight. After 24 h, cells on one plate (0 h plate) were treated with 30 μl/cavity of CTG solution (Promega Cell Titer Glo (catalogue #G755B and G756B)) and incubated at room temperature for 10 min, and luminescence was measured by means of a VICTOR V (Perkin Elmer), in order to determine cell viability on commencement of treatment. The cells on the test plate were treated with the compounds of the general formula (I) as and incubated at 37° C. for 72 h. The compounds were added to the cells by means of an HP D300 digital dispenser in a 10-step 2.5-fold dilution series generally starting at a maximum final drug concentration of 100 nM. As control, the cells were treated with vehicle (DMSO at 0.3% final concentration). After 72 h, the cells were treated with 30 μl/cavity of CTG solution (Promega Cell Titer Glo (catalogue #G755B and G756B)) and incubated at room temperature for 10 min. and luminescence was measured by means of a VICTOR V (Perkin Elmer), in order to determine cell viability at the end of treatment. The percentage effect on cell growth and the IC50 derived therefrom were determined for each test substance using the values from the 0 h plate […] and the DMSO control […]. The IC50 values were calculated using a 4-parameter fit.

[2] = system: SK-MEL-3 cells; assay: Assay 1 cell proliferation measurement (CTG, 72 h), SK-MEL-3; assay type: cell-based, human; settings: Homo sapiens, SK-MEL3; Assay 1, 72 h, Cell Titer Glo; read-out: SK-MEL-3 IC50 [nM] (melanoma)
Description: as §1, §2

[3] = molecular target: human full length PDE3A (Homo sapiens (Human), UniProt Q14432); assay: Assay 4 PDE3A enzyme inhibition (3H-cAMP SPA); assay type: biochemical; settings: Sf9 cell extract
Chain of human full length PDE3A (Q14432 whole entry): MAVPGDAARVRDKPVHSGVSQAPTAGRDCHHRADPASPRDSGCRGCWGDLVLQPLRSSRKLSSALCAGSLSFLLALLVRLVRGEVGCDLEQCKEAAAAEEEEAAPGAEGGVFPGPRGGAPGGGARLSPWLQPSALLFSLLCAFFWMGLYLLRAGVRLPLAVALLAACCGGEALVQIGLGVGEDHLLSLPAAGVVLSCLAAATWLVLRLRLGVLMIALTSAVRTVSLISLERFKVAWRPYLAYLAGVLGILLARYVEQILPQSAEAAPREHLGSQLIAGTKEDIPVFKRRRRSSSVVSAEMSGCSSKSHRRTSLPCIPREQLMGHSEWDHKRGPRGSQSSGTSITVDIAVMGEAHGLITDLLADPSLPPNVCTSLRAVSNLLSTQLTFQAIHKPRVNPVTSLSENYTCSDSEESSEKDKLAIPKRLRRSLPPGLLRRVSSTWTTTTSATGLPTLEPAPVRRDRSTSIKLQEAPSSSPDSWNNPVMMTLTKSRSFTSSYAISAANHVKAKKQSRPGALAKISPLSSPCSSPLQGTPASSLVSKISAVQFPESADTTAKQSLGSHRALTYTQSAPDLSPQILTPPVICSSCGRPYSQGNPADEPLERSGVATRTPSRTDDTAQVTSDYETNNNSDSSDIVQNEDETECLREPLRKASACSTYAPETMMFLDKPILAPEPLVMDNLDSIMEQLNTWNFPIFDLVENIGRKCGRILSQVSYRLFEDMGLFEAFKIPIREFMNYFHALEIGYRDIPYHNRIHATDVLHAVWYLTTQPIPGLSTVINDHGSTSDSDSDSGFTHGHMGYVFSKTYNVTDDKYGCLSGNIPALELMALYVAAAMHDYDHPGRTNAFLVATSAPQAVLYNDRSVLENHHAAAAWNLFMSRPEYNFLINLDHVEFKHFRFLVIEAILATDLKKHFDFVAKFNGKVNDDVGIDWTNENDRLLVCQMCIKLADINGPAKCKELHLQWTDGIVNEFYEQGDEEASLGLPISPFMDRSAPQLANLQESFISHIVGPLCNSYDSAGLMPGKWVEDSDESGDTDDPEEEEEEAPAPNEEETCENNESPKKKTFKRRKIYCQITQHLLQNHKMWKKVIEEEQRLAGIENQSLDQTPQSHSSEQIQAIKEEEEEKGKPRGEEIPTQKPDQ
Description: Assay 4 Method for PDE3A Enzyme Inhibition
(§3) The commercially available 3H-cAMP Scintillation Proximity Assay (SPA, Perkin Elmer) system was used for enzyme inhibition studies. For the determination of the in vitro effect of example compounds on the PDE3A reactions 2 μl of the respective example compound solution in DMSO (serial dilutions) were placed in wells of microtiter plates (Isoplate-96/200W; Perkin Elmer). 50 μl of a dilution of PDE3A cell extract from Sf9 cells overexpressing human full length PDE3A (SB Drug Discovery, UK) in buffer A (50 mM Tris/HCl pH 7.5, 8.3 mM MgCl2, 1.7 mM EDTA, 0.2% BSA) was added. The dilution of the PDE3A cell extract was chosen such that the reaction kinetics was linear and less than 70% of the substrate was consumed (typical dilution 1:5000). The reaction was started by addition of 50 μl (0.025 μCi) of 1:2000 in buffer A w/o BSA diluted substrate [8-3H]adenosine 3′, 5′-cyclic phosphate (1 μCi/μl; Perkin Elmer). After incubation at room temperature for 60 min, the reaction was stopped by addition of 25 μl of a suspension containing 18 mg/ml yttrium scintillation proximity beads (Perkin Elmer) in water. The microtiter plates were sealed and measured in a Microbeta scintillation counter (PerkinElmer Wallac). IC50 values were determined from sigmoidal curves by plotting percentage PDE3A activity vs log compound concentration.

[4] = molecular target: human full length PDE3B (Homo sapiens (Human), UniProt Q13370); assay: Assay 5 PDE3B enzyme inhibition (3H-cAMP SPA); assay type: biochemical; settings: Sf9 cell extract
Chain of human full length PDE3B (Q13370 whole entry): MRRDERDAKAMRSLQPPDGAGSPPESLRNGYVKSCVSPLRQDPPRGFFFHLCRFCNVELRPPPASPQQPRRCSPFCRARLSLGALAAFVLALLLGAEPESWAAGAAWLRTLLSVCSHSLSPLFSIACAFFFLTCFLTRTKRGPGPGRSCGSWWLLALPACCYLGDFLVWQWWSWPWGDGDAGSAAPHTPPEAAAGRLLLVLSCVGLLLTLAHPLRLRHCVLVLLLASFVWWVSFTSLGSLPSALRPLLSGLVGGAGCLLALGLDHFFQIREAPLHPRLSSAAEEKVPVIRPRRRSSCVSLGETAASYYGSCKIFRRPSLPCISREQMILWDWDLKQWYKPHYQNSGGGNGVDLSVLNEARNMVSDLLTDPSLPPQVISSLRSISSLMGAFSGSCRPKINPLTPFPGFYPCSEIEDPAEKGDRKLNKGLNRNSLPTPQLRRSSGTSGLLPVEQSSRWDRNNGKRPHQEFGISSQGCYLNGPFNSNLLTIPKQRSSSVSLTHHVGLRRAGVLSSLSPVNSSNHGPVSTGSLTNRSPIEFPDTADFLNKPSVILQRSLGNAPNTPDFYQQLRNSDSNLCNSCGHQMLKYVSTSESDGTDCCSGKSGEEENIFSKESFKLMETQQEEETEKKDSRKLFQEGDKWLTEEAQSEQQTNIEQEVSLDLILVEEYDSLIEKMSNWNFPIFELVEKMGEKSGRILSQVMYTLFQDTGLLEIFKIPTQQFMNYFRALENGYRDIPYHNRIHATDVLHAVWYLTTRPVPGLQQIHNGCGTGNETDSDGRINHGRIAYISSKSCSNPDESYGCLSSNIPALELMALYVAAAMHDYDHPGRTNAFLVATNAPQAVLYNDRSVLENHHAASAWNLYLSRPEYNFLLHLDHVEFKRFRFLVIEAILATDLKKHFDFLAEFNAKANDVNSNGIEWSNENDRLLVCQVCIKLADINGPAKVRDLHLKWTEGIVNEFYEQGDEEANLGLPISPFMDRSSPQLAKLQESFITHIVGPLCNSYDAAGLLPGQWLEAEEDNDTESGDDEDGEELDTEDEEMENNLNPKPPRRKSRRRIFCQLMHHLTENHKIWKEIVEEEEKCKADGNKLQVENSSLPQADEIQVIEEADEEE
Description: as §3, with “PDE3B” for “PDE3A”, “1:6000).” for “1:5000).”

Row | Compound | IC50 [1] [nM] | IC50 [2] [nM] | IC50 [3] [nM] | IC50 [4] [nM]
1 | COc1ccccc1-c1ccc(C2=NNC(=O)O[C@H]2C)cc1C(F)(F)F [Example 180, (6S)-5-[2′-Methoxy-2-(trifluoromethyl)[1,1′-biphenyl]-4-yl]-6-methyl-3,6-dihydro-2H-1,3,4-oxadiazin-2-one] | 36 | 48 | 250 | 250
2 | Cc1ncc(-c2ccc(C3=NNC(=O)OC3)cc2C)cn1 [Example 28, 5-[3-Methyl-4-(2-methylpyrimidin-5-yl)phenyl]-3,6-dihydro-2H-1,3,4-oxadiazin-2-one] | 14 | 28 | 31 | 40
3 | CCCCCNc1ccc(C2=NNC(=O)OC2)cc1C(F)(F)F [Example 74, 5-[4-(Pentylamino)-3-(trifluoromethyl)phenyl]-3,6-dihydro-2H-1,3,4-oxadiazin-2-one] | 11 | 23 | 42 | 100
4 | Cc1cc(C2=NNC(=O)OC2)ccc1-c1ccnn1C [Example 29, 5-[3-Methyl-4-(1-methyl-1H-pyrazol-5-yl)phenyl]-3,6-dihydro-2H-1,3,4-oxadiazin-2-one] | 46 | > 100 | 300 | 160
5 | CCCCNc1ccc(C2=NNC(=O)OC2)cc1C(F)(F)F [Example 66, 5-[4-(Butylamino)-3-(trifluoromethyl)phenyl]-3,6-dihydro-2H-1,3,4-oxadiazin-2-one] | 2 | 3 | 65 | 95
6 | CC(C)(C)/C=C/c1ccc(C2=NNC(=O)OC2)cc1C(F)(F)F [Example 144, 5-{4-[3,3-Dimethylbut-1-en-1-yl]-3-(trifluoromethyl)phenyl}-3,6-dihydro-2H-1,3,4-oxadiazin-2-one] | 6 | 13 | 55 | 100
7 | CCc1ccccc1-c1ccc(C2=NNC(=O)O[C@H]2C)cc1C(F)(F)F [Example 186, (6S)-5-[2′-Ethyl-2-(trifluoromethyl)[1,1′-biphenyl]-4-yl]-6-methyl-3,6-dihydro-2H-1,3,4-oxadiazin-2-one] | 61 | 71 |  | 
8 | Cc1cc(C2=NNC(=O)OC2)ccc1-c1cccnc1 [Example 13, 5-[3-Methyl-4-(pyridin-3-yl)phenyl]-3,6-dihydro-2H-1,3,4-oxadiazin-2-one] | 27 | 82 |  | 
9 | O=C1NN=C(c2ccc(N3CCCC(O)C3)c(C(F)(F)F)c2)CO1 (racemic) [Example 229, (rac)-5-[4-(3-hydroxypiperidin-1-yl)-3-(trifluoromethyl)phenyl]-3,6-dihydro-2H-1,3,4-oxadiazin-2-one] | 1 |  | 82 | 67
10 | CC(C)(CO)CNc1ccc(C2=NNC(=O)OC2)cc1C(F)(F)F [Example 231, 5-{4-[(3-Hydroxy-2,2-dimethylpropyl)amino]-3-(trifluoromethyl)phenyl}-3,6-dihydro-2H-1,3,4-oxadiazin-2-one] | 2 |  | 100 | 110
11 | COCC(O)CNc1ccc(C2=NNC(=O)OC2)cc1C(F)(F)F (racemic) [Example 235, (rac)-5-{4-[(2-Hydroxy-3-methoxypropyl)amino]-3-(trifluoromethyl)phenyl}-3,6-dihydro-2H-1,3,4-oxadiazin-2-one] | 4 |  | 170 | 180
12 | O=C1NN=C(c2ccc(N3CCC(O)CC3)c(C(F)(F)F)c2)CO1 [Example 227, 5-[4-(4-Hydroxypiperidin-1-yl)-3-(trifluoromethyl)phenyl]-3,6-dihydro-2H-1,3,4-oxadiazin-2-one] | 1 |  | 13 | 9
13 | O=C1NN=C(c2ccc(NCCn3cccn3)c(C(F)(F)F)c2)CO1 [Example 238, 5-[4-{[2-(1H-Pyrazol-1-yl)ethyl]amino}-3-(trifluoromethyl)phenyl]-3,6-dihydro-2H-1,3,4-oxadiazin-2-one] | 7 |  | 88 | 300

Other lines, results leading:

Row | IC50 [1] [nM] | IC50 [2] [nM] | IC50 [3] [nM] | IC50 [4] [nM] | Compound
14 | 2 | 2 | 75 | 112 | O=C1NN=C(c2cc(F)c(N3CCOCC3)c(C(F)(F)F)c2)CO1 [Example 264, 5-[3-Fluoro-4-(morpholin-4-yl)-5-(trifluoromethyl)phenyl]-3,6-dihydro-2H-1,3,4-oxadiazin-2-one]
15 | > 100 | > 100 | 580 | 780 | NC1CCCC(Nc2ccc(C3=NNC(=O)OC3)cc2C(F)(F)F)C1 (mixture of isomers) [Example 322, 5-[4-{[3-aminocyclohexyl]amino}-3-(trifluoromethyl)phenyl]-3,6-dihydro-2H-1,3,4-oxadiazin-2-one (mixture of stereoisomers)]
16 | 61 | > 100 | 70 | 180 | CC(C)(O)CCNc1ccc(C2=NNC(=O)OC2)cc1C(F)(F)F [Example 319, 5-{4-[(3-hydroxy-3-methylbutyl)amino]-3-(trifluoromethyl)phenyl}-3,6-dihydro-2H-1,3,4-oxadiazin-2-one]
17 | > 100 | > 100 |  |  | Nc1ncc(-c2ccc(C3=NNC(=O)OC3)cc2F)cn1 [Example 330, 5-[4-(2-aminopyrimidin-5-yl)-3-fluorophenyl]-3,6-dihydro-2H-1,3,4-oxadiazin-2-one]
18 | 2 |  | 92 | 130 | COC(C)CNc1ccc(C2=NNC(=O)OC2)cc1C(F)(F)F (racemic) [Example 242, (rac)-5-{4-[(2-Methoxypropyl)amino]-3-(trifluoromethyl)phenyl}-3,6-dihydro-2H-1,3,4-oxadiazin-2-one]
19 | 6 |  | 66 | 130 | CCOC(C)CNc1ccc(C2=NNC(=O)OC2)cc1C(F)(F)F (racemic) [Example 241, (rac)-5-{4-[(2-Ethoxypropyl)amino]-3-(trifluoromethyl)phenyl}-3,6-dihydro-2H-1,3,4-oxadiazin-2-one]
20 | 10 |  | 65 | 180 | O=C1CCC(CNc2ccc(C3=NNC(=O)OC3)cc2C(F)(F)F)CN1 (racemic) [Example 247, (rac)-5-[4-{[(6-Oxopiperidin-3-yl)methyl]amino}-3-(trifluoromethyl)phenyl]-3,6-dihydro-2H-1,3,4-oxadiazin-2-one]
